The experiment has as its system Rhyncosporium secalis (RHYNSE). Put plainly: Field assessment of barley leaf scald, Trial 2 (EC and SC formulations). In kind it is in vivo. To be noted: based on AUDPC, winter barley. The text has this:
Trial 2: Fungicidal treatments of Compound I were applied using two separate adjuvant systems. In the first system, an EC formulation of compound I was tank mixed with Agnique BP-420 (50%) at an active:adjuvant ratio of 1:2. The second adjuvant system was an SC formulation of Compound I tank mixed with Agnique BP-420 EW (38.5%) at an active:adjuvant ratio of 1:2 and Agnique FOH TDA-9 (30% w/w) applied at 0.33% V/V. Both the EC and SC formulation was sprayed on barley plants at rates of 25, 50, 75, 100, 150, 200 and 250 grams active ingredient per hectare (g ai/ha). Fungicidal treatments were applied at B39 (early curative, 1% infection on leaf 1) growth stage of winter barley (HORVW, Maris Otter variety) under natural infection of RHYNSE. The treatment was part of an experimental trial designed as a randomized complete block with four replications.
Disease severity was recorded as a percentage of visual diseased foliage on whole plot. Barley leaf scald infection was recorded following EPPO PP1/26 guideline prescriptions. Area under the disease progress curve (AUDPC) was calculated for each plot using the sets of recorded severity data. Relative AUDPC (% control based on AUDPC) was calculated as percent of the nontreated control.
In each case of the following Tables, the rating scale of percent control based on AUDPC is as follows: […]

1 compound from patent US20190274303A1, “USE OF A DIFLUORO-(2-HYDROXYPROPYL)PYRIDINE COMPOUND AS A FUNGICIDE FOR CONTROL OF PHYTOPATHOGENIC FUNGI OF BARLEY” (Dow AgroSciences LLC, priority 2016, published 2019) can be followed below.

Turning to `N#Cc1ccc(Oc2ccc(C(F)(F)C(O)(Cn3ncnc3S)c3ccc(F)cc3F)nc2)cc1` (centres unmarked) [Compound I, 4-((6-(2-(2,4-difluorophenyl)-1,1-difluoro-2-hydroxy-3-(5-mercapto-1H-1,2,4-triazol-1-yl)propyl)pyridin-3-yl)oxy)benzonitrile], the “Percent Control RHYNSE” value reads like this: (25 g ai/ha, EC + Agnique BP-420) “C (26-50)”; (25 g ai/ha, SC + Agnique BP-420 EW and Agnique FOH TDA-9) “C (26-50)”; (50 g ai/ha, EC + Agnique BP-420) “C (26-50)”; (50 g ai/ha, SC + Agnique BP-420 EW and Agnique FOH TDA-9) “C (26-50)”; (75 g ai/ha, EC + Agnique BP-420) “B (51-74)”; (75 g ai/ha, SC + Agnique BP-420 EW and Agnique FOH TDA-9) “C (26-50)”. Further, the “Percent Control RHYNSE” value is listed as “B (51-74)” (100 g ai/ha, EC + Agnique BP-420); “C (26-50)” (100 g ai/ha, SC + Agnique BP-420 EW and Agnique FOH TDA-9); “B (51-74)” (150 g ai/ha, EC + Agnique BP-420); “B (51-74)” (150 g ai/ha, SC + Agnique BP-420 EW and Agnique FOH TDA-9); “B (51-74)” (200 g ai/ha, EC + Agnique BP-420); “B (51-74)” (200 g ai/ha, SC + Agnique BP-420 EW and Agnique FOH TDA-9). In addition, the “Percent Control RHYNSE” value by setting is: (250 g ai/ha, EC + Agnique BP-420) “B (51-74)”; (250 g ai/ha, SC + Agnique BP-420 EW and Agnique FOH TDA-9) “B (51-74)”.
